Measurements: US20060045953A1 (priority 2004, published 2006)
Read-outs that look alike come from different tables or passages of the source.

Assays:
[1] = target: T1, hT1R1/hT1R3 umami receptor (Homo sapiens, UniProt Q7RTX0+Q7RTX1); assay: In vitro hT1R1/hT1R3 umami taste receptor activation assay (FLIPR, dose response); format: cell-based
T1 construct: expressed in transfected cells; host or cells: HEK293 derivative stably expressing Gα15, clone I-17, expression induced with mifepristone
T1 sequence (Q7RTX1 21-841): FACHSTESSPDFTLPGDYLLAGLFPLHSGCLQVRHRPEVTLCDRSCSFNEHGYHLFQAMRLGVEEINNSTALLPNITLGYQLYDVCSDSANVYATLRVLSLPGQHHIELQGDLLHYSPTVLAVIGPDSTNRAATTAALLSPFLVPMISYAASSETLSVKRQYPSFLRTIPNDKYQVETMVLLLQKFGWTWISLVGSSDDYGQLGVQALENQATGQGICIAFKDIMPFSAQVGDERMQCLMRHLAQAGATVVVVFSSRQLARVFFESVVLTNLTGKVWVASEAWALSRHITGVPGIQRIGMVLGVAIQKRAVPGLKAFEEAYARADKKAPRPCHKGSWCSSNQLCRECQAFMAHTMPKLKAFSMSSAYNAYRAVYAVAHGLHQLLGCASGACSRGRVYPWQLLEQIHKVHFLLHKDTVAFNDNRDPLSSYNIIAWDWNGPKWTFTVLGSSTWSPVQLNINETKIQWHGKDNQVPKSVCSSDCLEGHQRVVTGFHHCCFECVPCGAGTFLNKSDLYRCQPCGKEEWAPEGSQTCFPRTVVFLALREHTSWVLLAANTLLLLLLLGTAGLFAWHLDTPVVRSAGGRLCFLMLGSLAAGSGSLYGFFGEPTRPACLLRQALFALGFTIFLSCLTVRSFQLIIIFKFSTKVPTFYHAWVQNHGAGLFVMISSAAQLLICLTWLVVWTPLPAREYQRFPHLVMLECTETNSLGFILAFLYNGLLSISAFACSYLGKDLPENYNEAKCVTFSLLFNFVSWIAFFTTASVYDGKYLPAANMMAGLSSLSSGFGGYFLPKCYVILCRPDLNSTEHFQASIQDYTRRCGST
T1 sequence (Q7RTX0 21-852): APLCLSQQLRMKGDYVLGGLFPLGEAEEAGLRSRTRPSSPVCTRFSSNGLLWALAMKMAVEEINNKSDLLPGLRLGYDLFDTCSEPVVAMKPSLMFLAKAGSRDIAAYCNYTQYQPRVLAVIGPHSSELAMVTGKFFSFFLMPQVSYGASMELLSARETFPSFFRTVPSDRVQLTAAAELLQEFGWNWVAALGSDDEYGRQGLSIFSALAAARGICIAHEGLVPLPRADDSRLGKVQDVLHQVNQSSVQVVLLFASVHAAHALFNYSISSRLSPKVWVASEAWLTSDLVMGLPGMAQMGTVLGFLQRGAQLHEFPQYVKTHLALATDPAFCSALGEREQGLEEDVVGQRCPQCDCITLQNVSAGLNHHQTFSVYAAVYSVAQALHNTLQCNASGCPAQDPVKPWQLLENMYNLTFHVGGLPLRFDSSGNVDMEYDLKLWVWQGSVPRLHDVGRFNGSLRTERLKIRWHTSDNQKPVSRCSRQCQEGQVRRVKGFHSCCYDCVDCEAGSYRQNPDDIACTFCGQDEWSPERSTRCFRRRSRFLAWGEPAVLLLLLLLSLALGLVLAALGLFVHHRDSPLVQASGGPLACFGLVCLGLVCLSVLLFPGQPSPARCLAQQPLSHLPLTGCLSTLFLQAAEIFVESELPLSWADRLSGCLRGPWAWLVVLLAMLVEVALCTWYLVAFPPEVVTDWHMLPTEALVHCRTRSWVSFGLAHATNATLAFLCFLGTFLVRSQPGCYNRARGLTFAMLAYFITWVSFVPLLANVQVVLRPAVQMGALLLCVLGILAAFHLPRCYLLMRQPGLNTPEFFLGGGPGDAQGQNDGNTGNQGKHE

[2] = target: T2, hT1R2/hT1R3 sweet receptor (Homo sapiens, UniProt Q7RTX0+Q8TE23); assay: In vitro hT1R2/hT1R3 sweet taste receptor activation assay (FLIPR, dose response); format: cell-based; conditions: Table E, Sweet Enhancer Amides; read-out: Sweet EC50
T2 construct: expressed in transfected cells; host or cells: HEK293 derivative stably expressing Gα15, clone S-9
T2 sequence (Q8TE23 20-839): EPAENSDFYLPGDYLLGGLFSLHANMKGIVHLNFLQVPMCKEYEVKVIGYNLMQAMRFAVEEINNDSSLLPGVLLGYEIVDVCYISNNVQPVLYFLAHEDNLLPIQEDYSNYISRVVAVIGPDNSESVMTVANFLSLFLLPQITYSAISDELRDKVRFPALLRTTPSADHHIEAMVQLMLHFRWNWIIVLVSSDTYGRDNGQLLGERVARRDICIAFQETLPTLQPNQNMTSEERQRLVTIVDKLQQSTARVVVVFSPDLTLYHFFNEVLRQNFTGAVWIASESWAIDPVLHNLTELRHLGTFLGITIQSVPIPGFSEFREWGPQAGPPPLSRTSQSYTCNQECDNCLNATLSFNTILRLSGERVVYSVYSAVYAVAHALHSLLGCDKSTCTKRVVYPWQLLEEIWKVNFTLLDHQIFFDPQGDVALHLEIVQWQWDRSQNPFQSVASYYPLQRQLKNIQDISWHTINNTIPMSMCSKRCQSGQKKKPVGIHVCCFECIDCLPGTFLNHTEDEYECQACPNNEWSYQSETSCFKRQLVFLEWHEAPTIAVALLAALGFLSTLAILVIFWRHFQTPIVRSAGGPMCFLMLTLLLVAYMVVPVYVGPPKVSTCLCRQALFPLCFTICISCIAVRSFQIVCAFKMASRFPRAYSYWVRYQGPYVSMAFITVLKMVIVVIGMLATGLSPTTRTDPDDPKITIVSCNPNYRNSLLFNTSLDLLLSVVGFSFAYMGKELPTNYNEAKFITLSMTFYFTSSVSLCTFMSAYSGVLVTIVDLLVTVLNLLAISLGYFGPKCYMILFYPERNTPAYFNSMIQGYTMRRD
T2 sequence (Q7RTX0 21-852): T1 sequence (Q7RTX0 21-852)
Summary of the method: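 Dose-response at 10 concentrations (60 nM–30 µM, duplicates) measured as Fluo-3AM calcium fluorescence on FLIPR in hT1R2/hT1R3 S-9 cells, in D-PBS at room temperature. Responses scaled to 400 mM D-fructose. EC50s from regression with all curve parameters floating.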

[3] = read-out: EC50 for activation of a hT1R1/hT1R3 umami receptor expressed in an HEK293 cell line

EC50 [1, 3]	melting point	EC50 ([1]; Table E, read-out: Umami EC50)	EC50 [2]	Structure (SMILES)
680 nM	107 to 108 °C	–	–	CCCC(CCC)NC(=O)c1ccc2oc(CC)nc2c1 [Example 41, 2-Ethyl-benzooxazole-5-carboxylic acid (1-propyl-butyl)-amide]
690 nM	137 to 138 °C	–	–	CCCC(CCC)NC(=O)c1ccc2oc(OC)nc2c1 [Example 42, 2-Methoxy-benzooxazole-5-carboxylic acid (1-propyl-butyl)-amide]
5000 nM	128 to 129 °C	–	–	CCCC(CCC)NC(=O)c1ccc2oc(OCC)nc2c1 [Example 43, 2-Ethoxy-benzooxazole-5-carboxylic acid (1-propyl-butyl)-amide]
3100 nM	113 to 114 °C	–	–	CCCC(CCC)NC(=O)c1ccc2oc(SC)nc2c1 [Example 44, N-(heptan-4-yl)-2-(methylthio)benzo[d]oxazole-5-carboxamide]
230 nM	108.5 to 109 °C	–	–	CCCC(CCC)NC(=O)c1ccc2oc(CCl)nc2c1 [Example 45, Chloromethyl benzooxazol-5-carboxylic acid (1-propyl-butyl)amide]
450 nM	137 to 137.5 °C	–	–	CCCC(CCC)NC(=O)c1ccc2nc(CCl)oc2c1 [Example 47, 2-Chloromethyl-benzooxazole-6-carboxylic acid (1-propyl-butyl)-amide]
120 nM	129 to 131 °C	–	–	CCCC(CCC)NC(=O)c1ccc(SC)c(C)c1 [Example 51, N-(heptan-4-yl)-3-methyl-4-(methylthio)benzamide]
340 nM	118 to 119 °C	–	–	COc1ccccc1CNC(=O)C(=O)NCCc1ccccn1 [Example 122, N-(2-Methoxy-benzyl)-N′-(2-pyridin-2-yl-ethyl)-oxalamide]
370 nM	122 to 124 °C	–	–	Cc1ccsc1CNC(=O)C(=O)NCCc1ccccn1 [Example 124, N-(3-Methyl-thiophen-2-ylmethyl)-N′-(2-pyridin-2-yl-ethyl)-oxalamide]
410 nM	152 to 154 °C	–	–	Cc1ccc(CNC(=O)C(=O)NCCc2ccccn2)cc1 [Example 125, N-(4-methyl-benzyl)-N′-(2-pyridin-2-yl-ethyl)-oxalamide]
110 nM	133 to 134 °C	–	–	COc1ccc(CNC(=O)C(=O)NCCc2ccccn2)c(C)c1 [Example 126, N-(2-Methyl-4-methoxybenzyl)-N′-(2-pyridin-2-yl-ethyl)-oxalamide]
1010 nM	112 to 115 °C	–	–	Cc1cc(CNC(=O)C(=O)NCCc2ccccn2)c(C)o1 [Example 130, N-(2,5-Dimethyl-furan-3-ylmethyl)-N′-(2-pyridin-2-yl-ethyl)-oxalamide]
2300 nM	147 to 149 °C	–	–	Cc1ccc(CNC(=O)C(=O)NCCc2ccccn2)n1C [Example 131, N-(1,5-Dimethyl-1H-pyrrol-2-ylmethyl)-N′-(2-pyridin-2-yl-ethyl)-oxalamide]
70 nM	148 to 149 °C	–	–	Cc1ccc(CNC(=O)C(=O)NCCc2ccccn2)c(C)c1 [Example 133, N-(2,4-dimethylbenzyl)-N′-(2-(pyridin-2-yl)ethyl)oxalamide]
100 nM	117 to 118 °C	–	–	CCOc1ccc(CNC(=O)C(=O)NCCc2ccccn2)c(OC)c1 [Example 134, N-(4-ethoxy-2-methoxybenzyl)-N′-(2-(pyridin-2-yl)ethyl)oxalamide]
1040 nM	145 to 147 °C	–	–	COc1ccc(CNC(=O)C(=O)NCCc2ccccn2)cc1C [Example 135]
–	–	330 nM	3030 nM	CCCC(CCC)NC(=O)c1cccc(C(F)(F)F)c1 [Example E68, N-(heptan-4-yl)-3-(trifluoromethyl)benzamide]
–	–	8510 nM	4240 nM	CC1CCCCC1NC(=O)c1nsc(Cl)c1Cl (stereo not drawn) [Example E78, 4,5-Dichloro-isothiazole-3-carboxylic acid (2-methyl-cyclohexyl)-amide]
